Experimental data reported in ChEMBL document CHEMBL2407012, “Structural and biological exploration of phe(3)-phe(4)-modified endomorphin-2 peptidomimetics” (ACS Med Chem Lett, 2013).

How the values were obtained:
[1] = target: Delta-type opioid receptor (Homo sapiens, UniProt P41143); test: Displacement of [3H]DPDPE from delta opioid receptor (unknown origin) expressed in CHO cells after 90 mins by liquid scintillation counting; assay type: cell-based
[2] = target: Mu-type opioid receptor (Homo sapiens, UniProt P35372); test: Displacement of [3H]DAMGO from mu opioid receptor (unknown origin) expressed in CHO cells after 90 mins by liquid scintillation counting; assay type: cell-based
Sequence of Mu-type opioid receptor (P35372 whole entry): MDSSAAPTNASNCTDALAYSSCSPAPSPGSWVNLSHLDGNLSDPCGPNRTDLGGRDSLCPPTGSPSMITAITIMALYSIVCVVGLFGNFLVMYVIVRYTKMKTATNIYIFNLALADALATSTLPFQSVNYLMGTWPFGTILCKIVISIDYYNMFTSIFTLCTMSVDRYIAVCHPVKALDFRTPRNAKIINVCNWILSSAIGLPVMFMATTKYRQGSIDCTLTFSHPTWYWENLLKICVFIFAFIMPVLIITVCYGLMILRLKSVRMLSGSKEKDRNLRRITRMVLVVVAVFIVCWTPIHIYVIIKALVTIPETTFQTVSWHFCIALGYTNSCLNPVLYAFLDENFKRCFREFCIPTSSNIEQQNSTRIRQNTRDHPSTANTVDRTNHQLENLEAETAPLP

Sequence of Delta-type opioid receptor (P41143 whole entry): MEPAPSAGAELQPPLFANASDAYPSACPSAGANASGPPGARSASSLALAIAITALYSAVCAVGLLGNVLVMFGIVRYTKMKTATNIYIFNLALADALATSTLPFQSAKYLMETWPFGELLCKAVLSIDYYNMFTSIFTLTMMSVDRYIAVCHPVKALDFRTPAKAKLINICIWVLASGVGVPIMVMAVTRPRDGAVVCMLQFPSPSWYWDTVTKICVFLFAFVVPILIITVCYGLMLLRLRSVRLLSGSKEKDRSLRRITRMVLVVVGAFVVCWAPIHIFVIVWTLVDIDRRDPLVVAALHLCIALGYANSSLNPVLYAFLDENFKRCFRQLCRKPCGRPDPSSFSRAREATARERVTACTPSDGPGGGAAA

Row | Structure (SMILES) | Ki [1] [nM] | Ki [2] [nM]
1 | NC(=O)[C@@H]1Cc2ccccc2CN(C(=O)C[C@H](Cc2ccccc2)NC(=O)[C@@H]2CCCN2C(=O)[C@@H](N)Cc2ccc(O)cc2)C1 | 695 | 21
2 | NC(=O)[C@H]1Cc2ccccc2CN(C(=O)C[C@H](Cc2ccccc2)NC(=O)[C@@H]2CCCN2C(=O)[C@@H](N)Cc2ccc(O)cc2)C1 | 187 | 14
3 | NC(=O)[C@@H](CNC(=O)C[C@H](Cc1ccccc1)NC(=O)[C@@H]1CCCN1C(=O)[C@@H](N)Cc1ccc(O)cc1)Cc1ccccc1 | 1350 | 5.5
4 | NC(=O)[C@H](CNC(=O)C[C@H](Cc1ccccc1)NC(=O)[C@@H]1CCCN1C(=O)[C@@H](N)Cc1ccc(O)cc1)Cc1ccccc1 | 463 | 3.3
5 | NC(=O)C[C@@H]1Cc2ccccc2CN1C(=O)C[C@H](Cc1ccccc1)NC(=O)[C@@H]1CCCN1C(=O)[C@@H](N)Cc1ccc(O)cc1 | 1650 | 20
6 | NC(=O)C[C@H](Cc1ccccc1)NC(=O)C[C@H](Cc1ccccc1)NC(=O)[C@@H]1CCCN1C(=O)[C@@H](N)Cc1ccc(O)cc1 | 2800 | 19
7 | NC(=O)[C@H](CNC(=O)[C@H](CNC(=O)[C@@H]1CCCN1C(=O)[C@@H](N)Cc1ccc(O)cc1)Cc1ccccc1)Cc1ccccc1 | 922 | 101
